The values that follow come from ChEMBL document CHEMBL3991601, “The target landscape of clinical kinase drugs” (Science, 2017).

Structures are written as SMILES. Active and inactive are the calls of the source. Cut-off read from the data, not from the text of the source, for most assays here: actives have a measured Kd and inactives only a lower limit. A value given as a limit tells only on which side of the number the result lay.

As a reminder, the Kd is a measure of binding affinity in units of concentration.

Assay [1] deals with Tyrosine-protein kinase ABL1 (Homo sapiens, UniProt P00519).
In assay [2] the target is T1, Acyl-CoA dehydrogenase family member 11 (Homo sapiens, UniProt Q709F0).
T1 sequence (Q709F0 whole entry): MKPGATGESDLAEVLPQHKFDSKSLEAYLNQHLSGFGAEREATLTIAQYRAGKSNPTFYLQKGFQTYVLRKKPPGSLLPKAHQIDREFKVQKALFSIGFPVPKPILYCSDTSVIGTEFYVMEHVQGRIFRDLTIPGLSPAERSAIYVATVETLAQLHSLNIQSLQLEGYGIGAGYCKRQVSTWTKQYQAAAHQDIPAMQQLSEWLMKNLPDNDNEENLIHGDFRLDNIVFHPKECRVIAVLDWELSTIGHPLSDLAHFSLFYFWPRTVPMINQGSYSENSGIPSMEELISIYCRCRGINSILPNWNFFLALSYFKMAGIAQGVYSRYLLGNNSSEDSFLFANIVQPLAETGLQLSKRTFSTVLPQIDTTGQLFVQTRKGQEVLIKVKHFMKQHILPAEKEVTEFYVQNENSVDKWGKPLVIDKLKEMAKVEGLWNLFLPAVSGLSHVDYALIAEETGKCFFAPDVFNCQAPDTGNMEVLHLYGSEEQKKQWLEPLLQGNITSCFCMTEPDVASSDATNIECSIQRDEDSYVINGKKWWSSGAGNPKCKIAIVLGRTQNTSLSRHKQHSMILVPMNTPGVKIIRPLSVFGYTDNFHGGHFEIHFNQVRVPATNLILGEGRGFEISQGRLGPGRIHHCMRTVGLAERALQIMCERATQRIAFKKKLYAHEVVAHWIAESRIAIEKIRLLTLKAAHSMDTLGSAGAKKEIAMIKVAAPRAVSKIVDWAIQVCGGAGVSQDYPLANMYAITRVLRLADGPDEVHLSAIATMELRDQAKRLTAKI

Assay [3] concerns the target Calcium/calmodulin-dependent protein kinase kinase 2 (Homo sapiens, UniProt Q96RR4).
Assay [4] addresses T2, Cyclin-G-associated kinase (Homo sapiens, UniProt O14976).
T2 sequence (O14976 whole entry): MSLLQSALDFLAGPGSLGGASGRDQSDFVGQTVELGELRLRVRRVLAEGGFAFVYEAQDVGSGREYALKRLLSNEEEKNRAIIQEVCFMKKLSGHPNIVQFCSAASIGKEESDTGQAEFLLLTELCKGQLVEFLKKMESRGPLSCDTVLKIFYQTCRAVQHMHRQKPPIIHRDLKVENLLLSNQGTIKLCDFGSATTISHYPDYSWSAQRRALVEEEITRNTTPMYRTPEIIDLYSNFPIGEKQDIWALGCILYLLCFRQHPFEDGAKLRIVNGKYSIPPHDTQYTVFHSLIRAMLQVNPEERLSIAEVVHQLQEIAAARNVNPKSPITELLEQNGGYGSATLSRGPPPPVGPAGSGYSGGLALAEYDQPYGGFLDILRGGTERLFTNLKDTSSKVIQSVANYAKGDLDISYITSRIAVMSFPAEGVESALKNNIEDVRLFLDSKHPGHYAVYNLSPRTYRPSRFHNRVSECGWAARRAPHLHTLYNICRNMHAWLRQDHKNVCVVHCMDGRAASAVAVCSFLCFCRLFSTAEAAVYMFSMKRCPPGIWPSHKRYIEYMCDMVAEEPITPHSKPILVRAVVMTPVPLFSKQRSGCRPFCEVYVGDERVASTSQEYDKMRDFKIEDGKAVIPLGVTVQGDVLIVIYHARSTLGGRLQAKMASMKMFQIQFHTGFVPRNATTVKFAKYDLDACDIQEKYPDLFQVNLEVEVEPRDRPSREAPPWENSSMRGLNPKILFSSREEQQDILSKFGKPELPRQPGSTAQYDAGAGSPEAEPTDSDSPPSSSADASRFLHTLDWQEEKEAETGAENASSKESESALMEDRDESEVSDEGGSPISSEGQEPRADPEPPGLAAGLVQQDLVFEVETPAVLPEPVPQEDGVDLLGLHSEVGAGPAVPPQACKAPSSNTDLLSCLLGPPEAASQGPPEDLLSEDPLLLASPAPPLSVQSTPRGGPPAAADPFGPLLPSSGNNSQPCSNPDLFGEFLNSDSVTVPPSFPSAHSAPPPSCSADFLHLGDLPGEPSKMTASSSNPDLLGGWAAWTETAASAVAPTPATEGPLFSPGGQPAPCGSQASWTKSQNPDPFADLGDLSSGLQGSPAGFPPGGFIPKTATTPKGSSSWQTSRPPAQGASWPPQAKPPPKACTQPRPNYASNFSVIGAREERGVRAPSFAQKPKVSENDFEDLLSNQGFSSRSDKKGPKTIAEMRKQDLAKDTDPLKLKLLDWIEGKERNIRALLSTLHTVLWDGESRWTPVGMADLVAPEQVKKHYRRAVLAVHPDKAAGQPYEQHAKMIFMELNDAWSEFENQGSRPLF

The target of assay [5] is T3, Serine/threonine-protein kinase Nek2 (Homo sapiens, UniProt P51955).
T3 sequence (P51955 whole entry): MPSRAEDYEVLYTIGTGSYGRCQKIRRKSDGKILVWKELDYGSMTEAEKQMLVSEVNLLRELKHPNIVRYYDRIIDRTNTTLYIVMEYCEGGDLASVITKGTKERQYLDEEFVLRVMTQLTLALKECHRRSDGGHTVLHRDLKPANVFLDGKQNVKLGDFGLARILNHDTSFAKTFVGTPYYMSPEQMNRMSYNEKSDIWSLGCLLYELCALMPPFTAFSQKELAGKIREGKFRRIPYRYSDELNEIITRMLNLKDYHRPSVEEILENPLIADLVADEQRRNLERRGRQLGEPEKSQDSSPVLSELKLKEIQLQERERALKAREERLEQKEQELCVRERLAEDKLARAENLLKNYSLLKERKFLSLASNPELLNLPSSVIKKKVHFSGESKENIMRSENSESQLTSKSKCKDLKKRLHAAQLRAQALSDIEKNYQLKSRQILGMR

In assay [6] the target is Protein kinase C delta type (Homo sapiens, UniProt Q05655).
The target of assay [7] is Structural maintenance of chromosomes protein 2 (Homo sapiens, UniProt O95347).
The target in assay [8] is Tyrosine-protein kinase Yes (Homo sapiens, UniProt P07947).
Note: in the data inactive means no Kd found up to 30 µM.

Sequence of Protein kinase C delta type (Q05655 whole entry): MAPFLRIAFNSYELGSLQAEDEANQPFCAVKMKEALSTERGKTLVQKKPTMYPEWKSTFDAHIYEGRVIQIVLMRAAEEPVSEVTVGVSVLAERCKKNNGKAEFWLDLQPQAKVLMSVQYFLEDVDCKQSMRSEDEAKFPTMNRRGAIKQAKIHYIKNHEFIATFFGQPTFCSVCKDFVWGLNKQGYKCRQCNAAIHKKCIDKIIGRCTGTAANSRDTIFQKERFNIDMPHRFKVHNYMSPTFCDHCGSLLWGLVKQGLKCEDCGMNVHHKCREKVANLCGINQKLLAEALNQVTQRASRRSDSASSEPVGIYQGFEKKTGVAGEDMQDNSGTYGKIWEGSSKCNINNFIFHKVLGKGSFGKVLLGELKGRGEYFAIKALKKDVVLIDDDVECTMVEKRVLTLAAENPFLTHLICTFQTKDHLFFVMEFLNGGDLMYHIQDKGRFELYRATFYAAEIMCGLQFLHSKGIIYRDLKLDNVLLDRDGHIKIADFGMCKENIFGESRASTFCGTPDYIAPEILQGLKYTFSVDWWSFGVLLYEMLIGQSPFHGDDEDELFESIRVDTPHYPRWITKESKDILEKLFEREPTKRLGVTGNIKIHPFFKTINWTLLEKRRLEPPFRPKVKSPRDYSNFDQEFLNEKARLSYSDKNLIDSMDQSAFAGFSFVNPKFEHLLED
Sequence of Calcium/calmodulin-dependent protein kinase kinase 2 (Q96RR4 whole entry): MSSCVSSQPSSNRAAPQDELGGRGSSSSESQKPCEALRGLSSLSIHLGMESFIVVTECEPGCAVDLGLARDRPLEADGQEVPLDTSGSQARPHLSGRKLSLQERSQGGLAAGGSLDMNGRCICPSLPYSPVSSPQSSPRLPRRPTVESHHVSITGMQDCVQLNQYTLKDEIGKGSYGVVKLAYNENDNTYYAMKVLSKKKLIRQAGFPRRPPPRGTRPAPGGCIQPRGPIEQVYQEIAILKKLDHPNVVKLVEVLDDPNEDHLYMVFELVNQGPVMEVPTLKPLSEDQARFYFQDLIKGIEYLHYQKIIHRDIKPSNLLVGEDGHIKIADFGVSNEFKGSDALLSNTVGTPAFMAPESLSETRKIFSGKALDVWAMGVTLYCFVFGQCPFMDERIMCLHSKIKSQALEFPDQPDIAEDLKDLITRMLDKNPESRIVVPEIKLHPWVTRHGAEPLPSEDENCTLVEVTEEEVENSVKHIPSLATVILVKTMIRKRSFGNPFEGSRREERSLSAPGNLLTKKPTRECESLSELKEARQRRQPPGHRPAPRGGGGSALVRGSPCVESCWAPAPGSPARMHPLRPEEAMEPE
Sequence of Structural maintenance of chromosomes protein 2 (O95347 whole entry): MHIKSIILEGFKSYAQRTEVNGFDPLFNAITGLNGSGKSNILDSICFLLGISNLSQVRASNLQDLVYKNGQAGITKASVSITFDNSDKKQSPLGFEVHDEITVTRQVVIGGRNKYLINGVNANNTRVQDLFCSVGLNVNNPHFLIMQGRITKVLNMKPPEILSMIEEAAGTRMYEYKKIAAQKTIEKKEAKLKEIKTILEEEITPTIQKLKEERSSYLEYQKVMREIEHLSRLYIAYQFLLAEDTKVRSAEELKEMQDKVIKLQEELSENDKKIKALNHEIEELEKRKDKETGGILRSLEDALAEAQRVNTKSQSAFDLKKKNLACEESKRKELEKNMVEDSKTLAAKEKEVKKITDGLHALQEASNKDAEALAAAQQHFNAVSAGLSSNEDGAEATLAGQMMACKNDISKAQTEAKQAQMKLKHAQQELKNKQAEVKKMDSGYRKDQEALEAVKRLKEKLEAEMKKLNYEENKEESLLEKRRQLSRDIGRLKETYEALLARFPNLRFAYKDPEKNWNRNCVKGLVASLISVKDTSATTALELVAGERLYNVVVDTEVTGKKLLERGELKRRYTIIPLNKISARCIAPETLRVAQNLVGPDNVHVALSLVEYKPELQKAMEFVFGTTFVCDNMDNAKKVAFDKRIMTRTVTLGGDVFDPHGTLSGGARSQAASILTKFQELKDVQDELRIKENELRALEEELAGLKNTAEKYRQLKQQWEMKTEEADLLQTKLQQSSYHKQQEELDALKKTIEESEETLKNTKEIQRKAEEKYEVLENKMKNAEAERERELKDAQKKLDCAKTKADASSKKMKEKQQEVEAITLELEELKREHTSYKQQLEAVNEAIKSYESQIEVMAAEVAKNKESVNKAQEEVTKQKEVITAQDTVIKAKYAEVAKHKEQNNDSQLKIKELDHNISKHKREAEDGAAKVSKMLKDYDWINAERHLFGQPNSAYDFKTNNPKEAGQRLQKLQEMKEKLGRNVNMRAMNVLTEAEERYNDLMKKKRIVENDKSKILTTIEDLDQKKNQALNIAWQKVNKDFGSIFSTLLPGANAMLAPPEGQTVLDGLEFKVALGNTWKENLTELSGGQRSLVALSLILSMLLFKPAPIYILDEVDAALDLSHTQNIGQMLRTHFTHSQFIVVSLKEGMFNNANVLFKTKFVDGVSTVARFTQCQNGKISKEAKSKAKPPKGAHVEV
Sequence of Tyrosine-protein kinase Yes (P07947 whole entry): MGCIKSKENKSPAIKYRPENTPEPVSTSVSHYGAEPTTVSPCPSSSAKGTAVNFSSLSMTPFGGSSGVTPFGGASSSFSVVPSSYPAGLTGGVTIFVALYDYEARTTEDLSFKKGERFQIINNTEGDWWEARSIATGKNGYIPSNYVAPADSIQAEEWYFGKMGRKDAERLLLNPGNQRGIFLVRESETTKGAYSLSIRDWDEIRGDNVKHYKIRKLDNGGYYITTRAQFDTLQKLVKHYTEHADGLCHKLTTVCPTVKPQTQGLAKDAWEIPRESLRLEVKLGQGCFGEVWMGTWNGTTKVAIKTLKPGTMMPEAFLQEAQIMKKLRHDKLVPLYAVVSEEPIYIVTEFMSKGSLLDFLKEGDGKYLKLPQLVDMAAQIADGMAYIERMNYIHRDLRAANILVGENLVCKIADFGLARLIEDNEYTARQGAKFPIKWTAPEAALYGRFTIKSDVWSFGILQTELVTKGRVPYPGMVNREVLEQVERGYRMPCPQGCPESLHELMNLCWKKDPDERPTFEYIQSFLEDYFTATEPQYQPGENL
Sequence of Tyrosine-protein kinase ABL1 (P00519 whole entry): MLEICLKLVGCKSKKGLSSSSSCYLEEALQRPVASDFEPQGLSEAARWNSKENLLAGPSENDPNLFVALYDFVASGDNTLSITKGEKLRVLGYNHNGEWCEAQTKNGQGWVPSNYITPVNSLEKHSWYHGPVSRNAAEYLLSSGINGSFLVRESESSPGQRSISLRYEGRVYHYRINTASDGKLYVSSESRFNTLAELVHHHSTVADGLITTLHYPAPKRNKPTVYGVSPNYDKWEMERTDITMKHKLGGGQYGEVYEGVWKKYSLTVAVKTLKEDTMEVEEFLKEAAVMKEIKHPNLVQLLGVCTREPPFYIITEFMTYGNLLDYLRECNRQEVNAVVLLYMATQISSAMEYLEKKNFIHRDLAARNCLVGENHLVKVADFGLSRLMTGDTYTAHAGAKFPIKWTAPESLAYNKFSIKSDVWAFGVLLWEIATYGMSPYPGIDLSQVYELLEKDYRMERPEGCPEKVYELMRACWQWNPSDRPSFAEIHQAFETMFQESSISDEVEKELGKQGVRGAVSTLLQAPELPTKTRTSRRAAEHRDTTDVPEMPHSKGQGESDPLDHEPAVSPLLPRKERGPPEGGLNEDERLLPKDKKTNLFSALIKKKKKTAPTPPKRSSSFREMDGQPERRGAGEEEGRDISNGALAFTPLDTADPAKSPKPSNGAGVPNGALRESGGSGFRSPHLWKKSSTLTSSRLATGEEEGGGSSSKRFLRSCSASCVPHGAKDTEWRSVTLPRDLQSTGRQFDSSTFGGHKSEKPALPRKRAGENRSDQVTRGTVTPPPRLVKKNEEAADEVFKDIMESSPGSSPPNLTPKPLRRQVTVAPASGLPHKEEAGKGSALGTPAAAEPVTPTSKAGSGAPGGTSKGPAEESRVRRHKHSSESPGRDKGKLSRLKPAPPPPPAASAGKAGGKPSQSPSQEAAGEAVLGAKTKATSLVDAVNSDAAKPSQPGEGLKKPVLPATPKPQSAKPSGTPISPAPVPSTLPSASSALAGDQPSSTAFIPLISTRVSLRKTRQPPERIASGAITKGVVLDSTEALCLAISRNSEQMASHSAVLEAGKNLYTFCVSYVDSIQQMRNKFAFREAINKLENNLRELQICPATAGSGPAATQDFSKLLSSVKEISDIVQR

Consider `FC(F)(F)c1ccc(CNc2ccc(Cc3c[nH]c4ncc(Cl)cc34)cn2)cn1` [PEXIDARTINIB], for which the Kd in assay [1], in assay [2], in assay [3], in assay [4], in assay [5] and in assay [6] was > 30 µM (inactive) each time. In addition, the Kd in assay [7] and in assay [8] was > 30 µM (inactive) in each case.

Take `COc1ccc2c(OCc3nnc4ccc(-c5ccccc5)nn34)ccnc2c1` [AMG-208]: the Kd in assay [1], in assay [2], in assay [3], in assay [4], in assay [5] and in assay [6] was > 30 µM (inactive) in each case. The Kd in assay [7] and in assay [8] was > 30 µM (inactive) throughout.

Consider `Cc1cc(-c2cc(OC(=O)c3ccccc3)ccc2Cl)cc2nnc(Nc3ccc(OCCN4CCCC4)cc3)nc12` [TG100-801], for which the Kd in assay [1] is 10.7 µM (active); in assay [2], > 30 µM (inactive); in assay [3] it was > 30 µM (inactive); in assay [4], 0.824 µM (active); in assay [5], > 30 µM (inactive); in assay [6], > 30 µM (inactive). The Kd in assay [7] was > 30 µM (inactive); in assay [8] it was 4.43 µM (active).

On to `O=C(NC[C@H](O)CO)c1ccncc1Nc1ccc(I)cc1F` [PIMASERTIB], for which the Kd in assay [1], in assay [2], in assay [3], in assay [4], in assay [5] and in assay [6] was > 30 µM (inactive) each time. Moreover, the Kd in assay [7] and in assay [8] was > 30 µM (inactive) in each case.

On to `c1cc(OCCN2CCCCC2)cc(-c2n[nH]c3ccc(-c4nc[nH]n4)cc23)c1` [CC-401], for which the Kd was > 30 µM (inactive) in assay [1]; > 30 µM (inactive) in assay [2]; > 30 µM (inactive) in assay [3]; 1.46 µM (active) in assay [4]; > 30 µM (inactive) in assay [5]; > 30 µM (inactive) in assay [6]. The Kd in assay [7] and in assay [8] was > 30 µM (inactive) throughout.

With `NC(=O)c1ccc(N(C(N)=O)c2c(F)cccc2F)nc1-c1ccc(F)cc1F` [VX-702], the Kd in assay [1], in assay [2], in assay [3], in assay [4], in assay [5] and in assay [6] was > 30 µM (inactive) each time. The Kd in assay [7] and in assay [8] was > 30 µM (inactive) throughout.

Take `CC[C@@](C)(Nc1ccnc(-c2c[nH]c3ncccc23)n1)C(=O)NCC(F)(F)F` [DECERNOTINIB]: the Kd in assay [1] was 0.842 µM; in assay [2], > 30 µM (inactive); in assay [3], > 30 µM (inactive); in assay [4], > 30 µM (inactive); in assay [5], > 30 µM (inactive); in assay [6], 0.067 µM (active). The Kd in assay [7] and in assay [8] was > 30 µM (inactive) each time.

Take `COc1cc2ncnc(Nc3ccc(O)cc3)c2cc1OC` [WHI-P131]: the Kd was > 30 µM (inactive) in assay [1]; > 30 µM (inactive) in assay [2]; > 30 µM (inactive) in assay [3]; 28.7 µM (active) in assay [4]; > 30 µM (inactive) in assay [5]; > 30 µM (inactive) in assay [6]. In addition, the Kd in assay [7] and in assay [8] was > 30 µM (inactive) in each case.

With `COc1cccc(Nc2ncnn3ccc(CN4CC[C@@H](N)[C@H](O)C4)c23)c1` [BMS-690514], the Kd in assay [1] is 0.128 µM (active); in assay [2] it was > 30 µM (inactive); in assay [3], > 30 µM (inactive); in assay [4], 0.0003 µM (active); in assay [5] it was > 30 µM (inactive); in assay [6], 1.74 µM (active). The Kd in assay [7] was > 30 µM (inactive); in assay [8], 1.03 µM (active).

On to `S=C(NCc1ccc2c(c1)OCO2)N1CCN(c2ncnc3c2oc2ccccc23)CC1` [AMUVATINIB], for which the Kd in assay [1], in assay [2], in assay [3], in assay [4], in assay [5] and in assay [6] was > 30 µM (inactive) throughout. Moreover, the Kd in assay [7] and in assay [8] was > 30 µM (inactive) each time.

As to `COc1cc(F)c(F)c(Nc2ccc(I)cc2F)c1NS(=O)(=O)C1(C[C@H](O)CO)CC1` [REFAMETINIB], the Kd in assay [1], in assay [2], in assay [3], in assay [4], in assay [5] and in assay [6] was > 30 µM (inactive) throughout. Besides, the Kd in assay [7] and in assay [8] was > 30 µM (inactive) throughout.

Regarding `Cc1ccc(C(=O)Nc2ccc(Oc3cc4cnn(C)c4cc3-c3cn[nH]c3)c(F)c2)c(=O)n1-c1ccc(F)cc1` [MERESTINIB], the Kd in assay [1], in assay [2], in assay [3], in assay [4], in assay [5] and in assay [6] was > 30 µM (inactive) throughout. For the same compound, the Kd in assay [7] and in assay [8] was > 30 µM (inactive) each time.

In the case of `C=CC(=O)Nc1cccc(Nc2nc(Nc3ccc(N4CCN(C(C)=O)CC4)cc3OC)ncc2C(F)(F)F)c1` [ROCILETINIB], the Kd is > 30 µM (inactive) in assay [1]; > 30 µM (inactive) in assay [2]; > 30 µM (inactive) in assay [3]; 0.45 µM (active) in assay [4]; > 30 µM (inactive) in assay [5]; > 30 µM (inactive) in assay [6]. Also, the Kd in assay [7] and in assay [8] was > 30 µM (inactive) in each case.
